Values after ≈ are worked out from the molar mass of the structure shown.
Assays:
[1] = test system: human hepatoma cell HepG2; assay: In vitro human hepatoma cell HepG2 inhibitory activity (MTT); format: cell-based; conditions: HepG2, 48 h; for IC50: Homo sapiens
From the text: (§1) According to the progress in the studies on anticancer drugs using IMPDH as a target, the present invention measured inhibitory activities of the compounds of present invention against human hepatoma cell HepG2 and human lung adenocarcinoma cell A549, respectively, the measured results are shown in Table 5:
In Vitro Human Hepatoma Cell HepG2 Inhibitory Activity Measurement
Collect well growing tumor cells, prepare 6×10^4/ml cell suspension in RPMI-1640 or DMEM culture medium containing 10% FBS, seed in 96-well plates, 100 μl suspension each well, incubate at 37° C. under 5% CO2 atmosphere for 24 h, add the test solution (final concentration of drug: 0.625, 1.25, 2.5, 5.0, 10 μg/ml), for each concentration set three parallel holes, set positive control (cisplatin 10, 1, 0.1 μg/ml) and a blank control simultaneously. After culture for 48 h discard the supernatants, add into each well 10 μl MTT solution (5 mg/ml, prepared with RPMI-1640 medium), continue culturing for 4 It, add into each hole 100 μl acidified isopropanol cell lysate, culture overnight, measure absorbance (A) values with Bio-Tek MQX200 type microplate reader with the detection wavelength at 540 nm, and reference wavelength 450 nm. Calculate the inhibition rate as follows: inhibition rate=(Ablank−Asample)/Ablank control×100%. Use Graphpad Prism 5 statistical software to calculate IC50.

[2] = test system: human lung adenocarcinoma cell A549; assay: In vitro human lung adenocarcinoma cell A549 inhibitory activity (MTT); format: cell-based; conditions: A549, 48 h; for IC50: Homo sapiens
From the text: as §1
In Vitro Human Lung Adenocarcinoma Cell A549 Inhibitory Activity Measurement
Cell lines: human lung adenocarcinoma cell A549. Collect well growing tumor cells, prepare cell suspension with Ham's F12 culture solution containing 10% fetal calf serum medium, seed the suspension in 96-well plates, each well 100 μl suspension at 5000 cells/well, incubate at 37° C., under 5% CO2 atmosphere, 24 h later, add 2×drug solution […], each concentration in three parallel holes, set the blank control simultaneously. After culture for 48 h, add 20 μl (5 mg/ml) MTT to each well, culture 4 h, discard the supernatants. Measure absorbance (A) values using Bio-Rad 680 microplate reader at a detection wavelength of 570 nm, the survival rate (%) is calculated as follows: AsampleAblank control×100%. Use statistical software Graphpad Prism5 to calculate IC50. After primary screening of all samples, adjust the concentration gradient of the samples with IC50<100 μg/ml to do additional screenings, which are carried out with two parallel determinations.

[3] = test system: Coxsackie virus type B3 (COX-B3); assay: Anti-Coxsackie virus type B3 (COX-B3) activity, CPE in Vero cells; format: cell-based; conditions: Reed-Muench
Description: (§2) With Vero (African green monkey kidney) cells as viral hosts, inhibitory effects of the compounds of present invention on the grades of pathological lesions by coxsackievirus B3 (COX-B3), B6 (COX-B6) viruses in Vero cells were determined. The measured results of viral inhibitory activity of the compounds are shown in Table 3 and Table 4; wherein RBV is the control drug ribavirin. The inhibitory activities of the measured compounds against coxsackievirus B3, B6 were stronger than the control.
(§3) Screening of Anti-B3, B6 Type Coxsackie Viruses (COX-B3, COX-B6) Activity of the Samples
(§4) Prepare stock solutions of COX-B3 (or COX-B6) virus strains as well as tested compounds in DMSO before use. Before tests, dilute the stock solution with culture solution into a certain concentration and then dilute 3 times to make a total of eight dilutions. Use ribavirin (RBV) as positive control. Test procedures are as follows: seed Vero cells into 96-well culture plates, infect with 10^−5 Coxsackie virus of B3 (or B6) type, 24 hours later; adsorb subsequently for 2 hours, then discard the virus solution, add in the sample compounds and the positive control according to the abovementioned dilutions, set cell control wells and virus control wells simultaneously. When the cytopathic effect (CPE) of cells in the virus control wells reach 4+, observe CPE of the cells in each group. Use Reed-Muench method to calculate 50% inhibitory concentration (IC50) of the sample compounds against coxsackie virus B3 (or B6) type.

[4] = test system: IMPDH; assay: IMPDH inhibition activity (A340, IMP substrate, NAD); format: biochemical; conditions: compound at 10 μg/mL
Description: Measurement of IMPDH Inhibitor Activity
In 96-well plates, use IMP as the substrate and NAD, NADH as chromogenic agents to determine the activity of the compounds described in this invention as IMPDH inhibitor. Add 2 μl of each of the tested sample solution, 20 μl enzyme extract and 30 μl IMP into a sample well in the 96-well plates; 2 μl DMSO and 30 μl IMP solution into a control well; 2 μl DMSO and 20 μl IMPDH buffer instead of the enzyme extract and 30 μl IMP solution into a blank well. Keep plates at constant 37° C. for 15 min, measure absorbance values A340 (OD1) of the solutions in various wells; subsequently, add into each well with 50 μl NAD, keep at constant 37° C. for 50 min, then measure A340 (OD2) values. Calculate IMPDH inhibition rates of samples as follows: Inhibition (%)=[(OD2−OD1)control−(OD2−OD1)Sample]/[(OD2−OD1)control−(OD2−OD1)Blank]×100%.

[5] = test system: Coxsackie virus type B6 (COX-B6); assay: Anti-Coxsackie virus type B6 (COX-B6) activity, CPE in Vero cells; format: cell-based; conditions: Reed-Muench
Description: as §2, §3, §4

[6] = test system: mouse spleen cell; assay: Mouse spleen cell proliferation inhibiting activity; format: cell-based; conditions: mouse spleen cells
From the text: The present invention also provides the results of experimental studies on the biological activity of said compounds.

| Structure (SMILES) | IC50 [1] | IC50 [2] | IC50 [3] | IC50 [5] | inhibition rate (%) 10 μg/mL [4] | HepG2 IC50 [1] | A549 IC50 [2] | IC50 [6] |
| --- | --- | --- | --- | --- | --- | --- | --- | --- |
| COc1cc(NCc2ccc(C)s2)ccc1-c1cnco1 [Compound 2, N-(5-methylthien-2-ylmethyl)-3-methoxy-4-(oxazol-5-yl) aniline] | 7.95 µg/mL (≈ 26.5 µM) | 18.6 µg/mL (≈ 61.9 µM) | 0.23 µg/mL (≈ 0.766 µM) | 0.63 µg/mL (≈ 2.1 µM) | 68.7% |  |  |  |
| COc1cc(NCc2ccc(C(=O)O)s2)ccc1-c1cnco1 [Compound 7, 5-(3-methoxy-4-oxazol-5-yl-anilinomethyl)-thien-2-yl carboxylic acid] | > 100 µg/mL | > 100 µg/mL | > 66.7 µg/mL | 18.5 µg/mL (≈ 56 µM) |  |  |  |  |
| CCc1ccc(CNc2ccc(-c3cnco3)c(OC)c2)s1 [Compound 3, N-(5-ethylthien-2-ylmethyl)-3-methoxy-4-(oxazol-5-yl) aniline] | 20.9 µg/mL (≈ 66.5 µM) | 10.7 µg/mL (≈ 34.2 µM) | 0.35 µg/mL (≈ 1.11 µM) | 1.43 µg/mL (≈ 4.55 µM) |  |  |  |  |
| COc1cc(NCc2cccs2)ccc1-c1cnco1 [Compound 1, N-(thien-2-ylmethyl)-3-methoxy-4-(oxazol-5-yl) aniline] | 0.95 µg/mL (≈ 3.32 µM) |  | 0.44 µg/mL (≈ 1.54 µM) | 0.44 µg/mL (≈ 1.54 µM) | 65.7% |  |  |  |
| N.N.[Cl][Pt][Cl] [Cisplatin, reference compound] |  |  |  |  |  | 104.1 µg/mL | 263.4 µg/mL |  |
| COc1cc(NCc2ccc(Br)s2)ccc1-c1cnco1 [Compound 5, N-(5-bromothien-2-ylmethyl)-3-methoxy-4-(oxazol-5-yl) aniline] | 83.4 µg/mL (≈ 228 µM) | 16.5 µg/mL (≈ 45.2 µM) | 0.47 µg/mL (≈ 1.29 µM) | 0.44 µg/mL (≈ 1.2 µM) | 58.9% |  |  |  |
| COc1cc(NCc2ccsc2)ccc1-c1cnco1 [Compound 11, N-(thien-3-ylmethyl)-3-methoxy-4-(oxazol-5-yl) aniline] | 42.1 µg/mL (≈ 147 µM) | 29.7 µg/mL (≈ 104 µM) | 0.44 µg/mL (≈ 1.54 µM) | 1.33 µg/mL (≈ 4.64 µM) | 69.6% |  |  |  |
| COc1cc(NCc2cc3ccccc3s2)ccc1-c1cnco1 [Compound 10, N-(benzothien-2-ylmethyl)-3-methoxy-4-(oxazol-5-yl) aniline] | 21.7 µg/mL (≈ 64.5 µM) | 26.8 µg/mL (≈ 79.5 µM) | 0.27 µg/mL (≈ 0.803 µM) | 0.36 µg/mL (≈ 1.07 µM) |  |  |  |  |
| COc1cc(/N=C/c2cccs2)ccc1-c1cnco1 [Compound 9, N-(thien-2-ylmethylene)-3-methoxy-4-(oxazol-5-yl) aniline] |  |  | 12.8 µg/mL (≈ 45.1 µM) | 12.8 µg/mL (≈ 45.1 µM) |  |  |  |  |
| COc1cc(NCc2ccc(-c3ccccc3)s2)ccc1-c1cnco1 [Compound 6, N-(5-phenylthien-2-ylmethyl)-3-methoxy-4-(oxazol-5-yl) aniline] | 31.8 µg/mL (≈ 87.6 µM) | 16.9 µg/mL (≈ 46.6 µM) | 0.47 µg/mL (≈ 1.3 µM) | 0.27 µg/mL (≈ 0.745 µM) |  |  |  |  |

Second part, led by results:

| IC50 [1] | IC50 [2] | IC50 [3] | IC50 [5] | Structure (SMILES) | inhibition rate (%) 10 μg/mL [4] | HepG2 IC50 [1] | A549 IC50 [2] | IC50 [6] |
| --- | --- | --- | --- | --- | --- | --- | --- | --- |
| 2.88 µg/mL (≈ 8.57 µM) | 11.6 µg/mL (≈ 34.5 µM) | 0.64 µg/mL (≈ 1.9 µM) | 0.82 µg/mL (≈ 2.44 µM) | COc1cc(NCc2csc3ccccc23)ccc1-c1cnco1 [Compound 20, N-(benzothien-3-ylmethyl)-3-methoxy-4-(oxazol-5-yl) aniline] | 47.7% |  |  |  |
| 22.5 µg/mL (≈ 70.6 µM) | 38.6 µg/mL (≈ 121 µM) | > 2.47 µg/mL | 7.41 µg/mL (≈ 23.2 µM) | COc1cc(NCc2c[nH]c3ccccc23)ccc1-c1cnco1 [Compound 53, N-(1H-indol-3-ylmethyl)-3-methoxy-4-(oxazol-5-yl) aniline] | 39.2% |  |  |  |
| 53.3 µg/mL (≈ 177 µM) | 29.5 µg/mL (≈ 97.8 µM) | 1.43 µg/mL (≈ 4.74 µM) | 3.18 µg/mL (≈ 10.6 µM) | COc1cc(NCc2scnc2C)ccc1-c1cnco1 [Compound 54, N-(4-methylthiazol-5-ylmethyl)-3-methoxy-4-(oxazol-5-yl) aniline] |  |  |  |  |
| > 100 µg/mL | 32 µg/mL (≈ 105 µM) | 0.63 µg/mL (≈ 2.06 µM) | 1.43 µg/mL (≈ 4.67 µM) | COc1cc(NC/C=C/c2ccccc2)ccc1-c1cnco1 [Compound 62] |  |  |  |  |
| 36.2 µg/mL (≈ 117 µM) | 29.4 µg/mL (≈ 94.8 µM) | 0.64 µg/mL (≈ 2.06 µM) | 1.06 µg/mL (≈ 3.42 µM) | COc1ccc(CNc2ccc(-c3cnco3)c(OC)c2)cc1 [Compound 61, N-(4-methoxybenzyl)-3-methoxy-4-(oxazol-5-yl) aniline] | 73.7% |  |  |  |
| 42.1 µg/mL (≈ 147 µM) | 31.9 µg/mL (≈ 111 µM) | 1.88 µg/mL (≈ 6.54 µM) | 3.25 µg/mL (≈ 11.3 µM) | COc1cc(NCc2cncs2)ccc1-c1cnco1 [Compound 55, N-(thiazol-5-ylmethyl)-3-methoxy-4-(oxazol-5-yl) aniline] |  |  |  |  |
| 42.8 µg/mL (≈ 145 µM) | 36.7 µg/mL (≈ 124 µM) | 2.47 µg/mL (≈ 8.36 µM) | 1.88 µg/mL (≈ 6.37 µM) | COc1cc(NCc2cccc(C)n2)ccc1-c1cnco1 [Compound 57, N-(6-methylpyridin-2-ylmethyl)-3-methoxy-4-(oxazol-5-yl) aniline] | 45.1% |  |  |  |
| > 100 µg/mL | 122 µg/mL (≈ 427 µM) | 2.47 µg/mL (≈ 8.63 µM) | 3.25 µg/mL (≈ 11.3 µM) | COc1ccc(-c2cnco2)cc1NCc1cccs1 [Compound 21, N-(thien-2-ylmethyl)-2-methoxy-5-(oxazol-5-yl) aniline] |  |  |  |  |
| 9.9 µg/mL (≈ 33 µM) | 26.2 µg/mL (≈ 87.2 µM) | 0.82 µg/mL (≈ 2.73 µM) | 3.83 µg/mL (≈ 12.8 µM) | COc1ccc(-c2cnco2)cc1NCc1ccc(C)s1 [Compound 22, N-(5-methylthien-2-ylmethyl)-2-methoxy-5-(oxazol-5-yl) aniline] |  |  |  |  |
|  |  | 5.75 µg/mL (≈ 20.4 µM) | 4.28 µg/mL (≈ 15.2 µM) | COc1cc(NCc2ccncc2)ccc1-c1cnco1 [Compound 56, N-(pyridin-4-ylmethyl)-3-methoxy-4-(oxazol-5-yl) aniline] | 37.4% |  |  |  |
| 19.4 µg/mL (≈ 57.5 µM) | 14.1 µg/mL (≈ 42 µM) | 0.47 µg/mL (≈ 1.4 µM) | 2.47 µg/mL (≈ 7.34 µM) | COc1ccccc1/C=C/CNc1ccc(-c2cnco2)c(OC)c1 [Compound 63] |  |  |  | 2.22 µg/mL (≈ 6.6 µM) |
| 31.3 µg/mL (≈ 110 µM) | 20.7 µg/mL (≈ 72.8 µM) | 1.43 µg/mL (≈ 5.03 µM) | 1.93 µg/mL (≈ 6.79 µM) | COc1cc(NCc2ccc(C)o2)ccc1-c1cnco1 [Compound 42, N-(5-methylfuran-2-ylmethyl)-3-methoxy-4-(oxazol-5-yl) aniline] | 60.7% |  |  |  |
| 40 µg/mL (≈ 148 µM) | 22.8 µg/mL (≈ 84.2 µM) | 0.63 µg/mL (≈ 2.33 µM) | 1.88 µg/mL (≈ 6.96 µM) | COc1cc(NCc2ccco2)ccc1-c1cnco1 [Compound 41, N-(furan-2-ylmethyl)-3-methoxy-4-(oxazol-5-yl) aniline] |  |  |  |  |
|  |  | 1.23 µg/mL (≈ 4.04 µM) | 5.75 µg/mL (≈ 18.9 µM) | COc1cc(/N=C/C=C/c2ccccc2)ccc1-c1cnco1 [Compound 65, N-(phenylpropen-1-ylidene)-3-methoxy-4-(oxazol-5-yl)-aniline] | 32.0% |  |  |  |
| 0.897 µg/mL (≈ 2.86 µM) | 4.84 µg/mL (≈ 15.4 µM) | 0.82 µg/mL (≈ 2.62 µM) | 1.53 µg/mL (≈ 4.88 µM) | COc1cc(/N=C/c2ccc([N+](=O)[O-])o2)ccc1-c1cnco1 [Compound 49, N-(5-nitrofuran-2-methylidene)-3-methoxy-4-(oxazol-5-yl) aniline] |  |  |  |  |
